± gives the expanded uncertainty stated by the source.
Experiment: xn = mol fraction of the nth substance listed
Conditions: 101 kPa, Liquid; for viscosity: Concentric cylinders viscometry; for mass density: Vibrating tube method

For `CCCCOC(=O)C(C)O` (stereo not given) [butyl 2-hydroxypropanoate] + CCCO, the viscosity (288.15 K, x1 = 0.1) was 2.632 ± 0.026 mPa·s, the viscosity (288.15 K, x1 = 0.2) was 2.786 ± 0.029 mPa·s and the viscosity (288.15 K, x1 = 0.3001) was 2.979 ± 0.033 mPa·s. The viscosity (288.15 K, x1 = 0.3998) was 3.19 ± 0.037 mPa·s, the viscosity (288.15 K, x1 = 0.5) was 3.406 ± 0.043 mPa·s and the viscosity (288.15 K, x1 = 0.5999) was 3.623 ± 0.048 mPa·s. For the same molecule, the viscosity (288.15 K, x1 = 0.7001) was 3.83 ± 0.055 mPa·s, the viscosity (288.15 K, x1 = 0.7996) was 4.04 ± 0.062 mPa·s and the viscosity (288.15 K, x1 = 0.8998) was 4.287 ± 0.07 mPa·s. The viscosity (288.15 K, x1 = 1) was 4.628 ± 0.081 mPa·s, the mass density (288.15 K, x1 = 0.1) was 841.535 ± 0.18 kg/m3 and the mass density (288.15 K, x1 = 0.2) was 869.447 ± 0.24 kg/m3. For the same molecule, the mass density (288.15 K, x1 = 0.3001) was 892.853 ± 0.32 kg/m3, the mass density (288.15 K, x1 = 0.3998) was 912.61 ± 0.44 kg/m3 and the mass density (288.15 K, x1 = 0.5) was 929.664 ± 0.59 kg/m3. For the same molecule, the mass density (288.15 K, x1 = 0.5999) was 944.359 ± 0.77 kg/m3, the mass density (288.15 K, x1 = 0.7001) was 957.317 ± 0.99 kg/m3 and the mass density (288.15 K, x1 = 0.7996) was 968.544 ± 1.2 kg/m3. For the same molecule, the mass density (288.15 K, x1 = 0.8998) was 978.506 ± 1.5 kg/m3, the mass density (288.15 K, x1 = 1) was 987.269 ± 1.8 kg/m3 and the viscosity (293.15 K, x1 = 0.1) was 2.305 ± 0.023 mPa·s. It also gave a viscosity (293.15 K, x1 = 0.2) of 2.431 ± 0.025 mPa·s, a viscosity (293.15 K, x1 = 0.3001) of 2.584 ± 0.028 mPa·s and a viscosity (293.15 K, x1 = 0.3998) of 2.751 ± 0.032 mPa·s. The viscosity (293.15 K, x1 = 0.5) was 2.921 ± 0.037 mPa·s, the viscosity (293.15 K, x1 = 0.5999) was 3.092 ± 0.042 mPa·s and the viscosity (293.15 K, x1 = 0.7001) was 3.257 ± 0.047 mPa·s. It also gave a viscosity (293.15 K, x1 = 0.7996) of 3.426 ± 0.053 mPa·s, a viscosity (293.15 K, x1 = 0.8998) of 3.622 ± 0.059 mPa·s and a viscosity (293.15 K, x1 = 1) of 3.88 ± 0.068 mPa·s. It also gave a mass density (293.15 K, x1 = 0.1) of 837.385 ± 0.18 kg/m3, a mass density (293.15 K, x1 = 0.2) of 865.152 ± 0.24 kg/m3 and a mass density (293.15 K, x1 = 0.3001) of 888.44 ± 0.32 kg/m3. The mass density (293.15 K, x1 = 0.3998) was 908.086 ± 0.44 kg/m3, the mass density (293.15 K, x1 = 0.5) was 925.055 ± 0.59 kg/m3 and the mass density (293.15 K, x1 = 0.5999) was 939.67 ± 0.77 kg/m3. The mass density (293.15 K, x1 = 0.7001) was 952.563 ± 0.98 kg/m3, the mass density (293.15 K, x1 = 0.7996) was 963.731 ± 1.2 kg/m3 and the mass density (293.15 K, x1 = 0.8998) was 973.646 ± 1.5 kg/m3. The mass density (293.15 K, x1 = 1) was 982.366 ± 1.8 kg/m3, the viscosity (298.15 K, x1 = 0.1) was 2.034 ± 0.02 mPa·s and the viscosity (298.15 K, x1 = 0.2) was 2.147 ± 0.022 mPa·s. For the same molecule, the viscosity (298.15 K, x1 = 0.3001) was 2.277 ± 0.025 mPa·s, the viscosity (298.15 K, x1 = 0.3998) was 2.413 ± 0.028 mPa·s and the viscosity (298.15 K, x1 = 0.5) was 2.548 ± 0.032 mPa·s. The viscosity (298.15 K, x1 = 0.5999) was 2.679 ± 0.036 mPa·s, the viscosity (298.15 K, x1 = 0.7001) was 2.81 ± 0.041 mPa·s and the viscosity (298.15 K, x1 = 0.7996) was 2.946 ± 0.045 mPa·s. The viscosity (298.15 K, x1 = 0.8998) was 3.104 ± 0.051 mPa·s, the viscosity (298.15 K, x1 = 1) was 3.307 ± 0.058 mPa·s and the mass density (298.15 K, x1 = 0.1) was 833.207 ± 0.18 kg/m3. It also gave a mass density (298.15 K, x1 = 0.2) of 860.837 ± 0.24 kg/m3, a mass density (298.15 K, x1 = 0.3001) of 883.997 ± 0.32 kg/m3 and a mass density (298.15 K, x1 = 0.3998) of 903.535 ± 0.44 kg/m3. The mass density (298.15 K, x1 = 0.5) was 920.415 ± 0.58 kg/m3, the mass density (298.15 K, x1 = 0.5999) was 934.96 ± 0.76 kg/m3 and the mass density (298.15 K, x1 = 0.7001) was 947.782 ± 0.97 kg/m3. The mass density (298.15 K, x1 = 0.7996) was 958.893 ± 1.2 kg/m3, the mass density (298.15 K, x1 = 0.8998) was 968.763 ± 1.5 kg/m3 and the mass density (298.15 K, x1 = 1) was 977.448 ± 1.8 kg/m3. It also gave a viscosity (303.15 K, x1 = 0.1) of 1.796 ± 0.018 mPa·s, a viscosity (303.15 K, x1 = 0.2) of 1.888 ± 0.02 mPa·s and a viscosity (303.15 K, x1 = 0.3001) of 1.994 ± 0.022 mPa·s. For the same molecule, the viscosity (303.15 K, x1 = 0.3998) was 2.105 ± 0.025 mPa·s, the viscosity (303.15 K, x1 = 0.5) was 2.219 ± 0.028 mPa·s and the viscosity (303.15 K, x1 = 0.5999) was 2.328 ± 0.032 mPa·s. It also gave a viscosity (303.15 K, x1 = 0.7001) of 2.439 ± 0.035 mPa·s, a viscosity (303.15 K, x1 = 0.7996) of 2.554 ± 0.039 mPa·s and a viscosity (303.15 K, x1 = 0.8998) of 2.685 ± 0.044 mPa·s. For the same molecule, the viscosity (303.15 K, x1 = 1) was 2.85 ± 0.05 mPa·s, the mass density (303.15 K, x1 = 0.1) was 828.994 ± 0.18 kg/m3 and the mass density (303.15 K, x1 = 0.2) was 856.474 ± 0.24 kg/m3. The mass density (303.15 K, x1 = 0.3001) was 879.517 ± 0.32 kg/m3, the mass density (303.15 K, x1 = 0.3998) was 898.955 ± 0.43 kg/m3 and the mass density (303.15 K, x1 = 0.5) was 915.748 ± 0.58 kg/m3. The mass density (303.15 K, x1 = 0.5999) was 930.218 ± 0.76 kg/m3, the mass density (303.15 K, x1 = 0.7001) was 942.977 ± 0.97 kg/m3 and the mass density (303.15 K, x1 = 0.7996) was 954.036 ± 1.2 kg/m3. It also gave a mass density (303.15 K, x1 = 0.8998) of 963.865 ± 1.5 kg/m3 and a mass density (303.15 K, x1 = 1) of 972.515 ± 1.8 kg/m3.
